Reference: patent US6815459B2, “Seleno compounds containing nitrone moiety, their preparation and their therapeutic uses” (Sam-Sung Electronics Co., Ltd., priority 2001, dated 2004)
In brackets after ≈: the same amount, converted by molar mass. Like-named read-outs stand apart in the source and are kept apart here.

Columns and labels:
mice = conditions: oral administration; cited from earlier work
rats [1] = conditions: cited from earlier work
[2] = tested on: ischemic neuronal degeneration in hippocampus; assay: Protection of cell damage by ischemia (in vivo); parameters: species or system Mongolian gerbils (Meriones unguiculatus); conditions: for Protective effects against ischemic neuronal degeneration: gerbil, 60 mg/kg P.O. 30 minutes after ischemic injury (post-treated), 4 days reperfusion
Text: Male Mongolian gerbils (Meriones unguiculatus) weighing 80-88 g were used in the present study. […] A midline ventral incision was made in the neck. Both common carotid arteries were isolated, freed of nerve fibers, and occluded using nontraumatic aneurysm clips. Complete interruption of blood flow was confirmed by observing the central artery in eyeballs using ophthalmoscope. After five minutes of occlusion, the aneurysm clips were removed from both common carotid arteries. Restoration of blood flow (reperfusion) was observed directly under the microscope. Sham-operated controls were subjected to the same surgical procedures except that common carotid arteries were not occluded. Body temperature was monitored and maintained at 37° C.±0.5° C. during surgery and during the immediate postoperative period until the animals recovered fully from anesthesia. At the designated reperfusion time (4 days), operated animals and sham animals were killed. Animals were perfused transcardially with phosphate-buffered saline (PBS, pH 7.4) followed by 4% paraformaldehyde in 0.1 M phosphate buffer (pH 7.4) at 4 days (n=7) after surgery. The brains were removed, and postfixed in the same fixative for 4 hours. The brain tissues were cryoprotected by infiltration with 30% sucrose overnight. Cornoy fixed specimens were cut into 30 sections on a cryostat, were sequentially stained by Cresyl violet dye. Images of staining in the hippocampus of each animal were captured with an […]. […] All data obtained from the quantitative data were analyzed using one-way ANOVA to determine statistical significance. Bonferroni's test was used for post-hoc comparisons. P values below 0.05 or 0.01 were considered statistically significant.

[3] = Determination of water solubility (UV, saturated solution); type: physicochemical; conditions: 10 mM phosphate buffer (pH 7.4), stirred 3 hours, filtered; for solubility at 3 h: read-out: C′ (μM) = A′ (C/A), concentration of the saturated solution (water solubility)
Experimental: With a Beckman DUI® 7500 Spectrophotometer, the UV absorption maximum of each compound was determined by eventually diluting the solution with MeOH as necessary.
A saturated solution of each compound was then prepared by stirring magnetically a small volume of 10 mM phosphate buffer (pH 7.4) in the presence of an excess test compound for 3 hours. The obtained saturated solution was filtered in order to remove solid compound through a Gelman 0.45 m filter and scanned by UV at the wavelength of the absorption maximum previously determined.

[4] = Glutathione peroxidase like activity (NADPH-glutathione reductase coupled system); type: biochemical; conditions: 50 μM compound; for Rate A340/min(30˜300 sec) / Rate/0.00622 (nmol NADPH/min/mL): 25° C.; for % Ebselen (glutathione peroxidase activity): relative to Ebselen
Experimental: Glutathione peroxidase like activity was determined by the reduction of GSSG formed via the NADPH-glutathione reductase system as an indicator system.
To 350 of 50 mM Tris-HCl(pH 7.6) containing 5 mM of EDTA (assay buffer) are added in the following order:
1) 350 of assay buffer containing 6.4 mM of reduced glutathione (GSH), 640 μM of […] (NADPH), and 1.6 unit/mL of glutathione disulfide reductase (GR)
2) 70 of 800 μM of the test compound which was dissolved in DMSO (i.e., each compound was tested at a final concentration of 50 μM)
3) 350 of 0.007% tert-butyl hydroperoxide which was made by 1/10,000 dilution of tert-butyl hydroperoxide with DDW.
The final reaction volume is 1120.
The reaction was carried out at 25° C. […] The said activity or initial enzymatic rate is proportional to the slope of the variation of absorbance with time.
The catalytic activity for oxygen reduction of the compounds tested corresponds to the rate of consumption of NADPH.
They are expressed in n-moles of NADPH consumed per minute.

[5] = Inhibition of lipid peroxidation of liposome (TBA method); type: biochemical; conditions: histidine-FeCl3/FeCl2, 37° C., 15 minutes, read-out: Inhibitor Concentration (IC50), lipid peroxidation
Experimental: The compounds of the present invention were tested for antioxidant effect in terms of the repression of the radical chain reaction of a multilayer liposome.
The liposome was prepared as followings: 30 mg of commercially available soybean phosphatidylcholine (PC, Sigma Chemical Co., U.S.A.) was dissolved in 1 mL of ethanol, and 200 of the ethanol/PC solution was added to 10 mL of 10 mM Tris buffer including 50 mM NaCl (pH 7.0) with stirring.
The ability of a compound to inhibit oxidation of the liposome was evaluated as followings: To 400 of the liposomes were added the test compound (in buffer or ethanol) and histidine-FeCl3 (167:33 μM final). Oxidation was initiated by the addition of FeCl2 (33 μM final prepared in nitrogen purged water). The mixtures were shaken at 37° C. for 15 minutes. […]. The aliquots were heated to 100° C. for 20 minutes. After ice cooling, 1 mL of chloroform was added to 1 mL of supernatant from tubes and tubes were centrifuged. The absorbances of the resulting supernatant were measured at 532 nm (see: Table 2).

rats [6] = assay: Acute toxicity LD50 in rats; type: in vivo

SMILES	Protective effects against ischemic neuronal degeneration [2] [%]	C′ (g/L = mg/mL), concentration of the saturated solution (water solubility) [3] [g/L = mg/mL]	Rate A340/min(30˜300 sec) [4] [A340/min]	Rate/0.00622 (nmol NADPH/min/mL) [4] [nmol NADPH/min/mL]	% Ebselen (glutathione peroxidase activity) [4] [%]	IC50 [5] [µM]	also measured
O=c1c2ccccc2[se]n1-c1ccccc1 [Ebselen, reference compound]	59	0.001265					LD50 (mice): ≥ 6,810 mg/kg; LD50 (rats [1]; intraperitoneal administration): 580 mg/kg; LD50 (rats [1]; oral administration): ≥ 6,810 mg/kg; solubility at 3 h ([3]; aqueous buffer, thermodynamic from solid): 4.62 µM (≈ 1.27 µg/mL)
CC(C)/[N+]([O-])=C/c1ccc(-n2[se]c3ccccc3c2=O)cc1 [Example 1, 2-[4-(N-isopropyl)nitronyl]phenyl-1,2-benzisoselenazol-3(2H)-one]			−0.141	22.67	119.50	81.1	
CC(C)/[N+]([O-])=C\c1cccc(-n2[se]c3ccccc3c2=O)c1 [Example 2, 2-[3-(N-isopropyl)nitronyl]phenyl-1,2-benzisoselenazol-3(2H)-one]			−0.125	20.10	105.96	111	
CC(C)[N+]([O-])=Cc1csc(-n2[se]c3ccccc3c2=O)n1 [Example 5, 2-[4-(N-isopropyl)nitronyl]thiazol-2-yl-1,2-benzisoselenazol-3(2H)-one]	61	0.0414	−0.125	20.13	106.11	1.2	LD50 (rats [6]; intraperitoneal administration in rats): ≥ 800 mg/kg; LD50 (rats [6]; oral administration in rats): ≥ 7,000 mg/kg; Neuroprotective effects compared with Ebselen ([2]; gerbil ischemia, 60 mg/kg P.O.): more neuroprotective effects against ischemic neuronal degeneration than Ebselen; solubility at 3 h [3]: 113.029 µM (≈ 41.4 µg/mL)
CC(C)/[N+]([O-])=C\c1ccc(Cn2[se]c3ccccc3c2=O)cc1 [Example 7, 2-[4-(N-isopropyl)nitronyl]benzyl-1,2-benzisoselenazol-3(2H)-one]			−0.084	13.50	71.17	246	
CC(C)(C)[N+]([O-])=Cc1ccccc1S(=O)(=O)O [S-PBN, reference compound]						25000	
